Test results taken from publication PMC8606745 (Frontiers in Microbiology, 2021).
Where two headings read alike, the source gives them in different places. Peptide text beside a SMILES is read from it.

Experiments:
[1] = test system: X. fastidiosa subsp. fastidiosa IVIA 5387.2; assay type: cell-based, Xylella fastidiosa
[2] = test system: Gram-negative bacteria; design: key: Xf: Xylella fastidiosa; Ec: Escherichia coli; Pa: Pseudomonas aeruginosa; Ab: Acinetobacter baumannii; Kp: Klebsiella pneumoniae; Bc: Burkholderia cenocepacia; Se: Salmonella enterica subsp. enterica; Sp: Salmonella pullorum; –: low or no activity; settings: cited from earlier work
[3] = test system: X. fastidiosa subsp. fastidiosa IVIA 5387.2
[4] = test system: horse erythrocytes

Molecule	Described activity: Antibacterial [2]	Bactericidal activity: Reduction in viability (Log N0/N) [3] [Log N0/N]	Hemolysis ([4]; 150 µM) [%]	Hemolysis ([4]; 250 µM) [%]	Hemolysis ([4]; 375 µM) [%]	Biofilm formation Level (antibiofilm activity) ([1]; 50 µM)	Biofilm formation Ratio (treatment/NTC) ([1]; 50 µM)	Planktonic cells Ratio (treatment/NTC) ([1]; 50 µM)	Bactericidal activity: Reduction in viability (Log N0/N) ([3]; 50 µM)	further results
CC[C@H](C)[C@H](N)C(=O)N[C@@H](CC(C)C)C(=O)N1CCC[C@H]1C(=O)N[C@@H](Cc1c[nH]c2ccccc12)C(=O)N[C@@H](CCCCN)C(=O)N[C@@H](Cc1c[nH]c2ccccc12)C(=O)N1CCC[C@H]1C(=O)N[C@@H](Cc1c[nH]c2ccccc12)C(=O)N[C@@H](Cc1c[nH]c2ccccc12)C(=O)N1CCC[C@H]1C(=O)N[C@@H](Cc1c[nH]c2ccccc12)C(=O)N[C@@H](CCCNC(=N)N)C(=O)N[C@@H](CCCNC(=N)N)C(N)=O [Indolicidin]	Xf	2.46 ± 0.11	95.1 ± 5.0	100.0 ± 4.4	100.0 ± 2.5	–	–	–	–	Biofilm formation Level (antibiofilm activity) [1]: High (key: High: high antibiofilm activity (ratio of biofilm formation from 0.01 to 0.2); Moderate: moderate activity (ratio from 0.29 to 0.47); Low: low activity (ratio from 0.72 to 0.77)); Biofilm formation Ratio (treatment/NTC) [1]: 0.09 ± 0.01; Planktonic cells Ratio (treatment/NTC) [1]: 0.46 ± 0.07; log reduction of cell viability ([3]; 3 h, 50 μM): 2-3 log
CC[C@H](C)[C@H](NC(=O)[C@H](CCCNC(=N)N)NC(=O)[C@H](CCCNC(=N)N)NC(=O)[C@H](Cc1c[nH]c2ccccc12)NC(=O)[C@H](Cc1ccccc1)NC(=O)[C@@H](N)C(C)C)C(=O)N[C@@H](CCCNC(=N)N)C(=O)N[C@H](C(=O)N[C@@H](Cc1c[nH]c2ccccc12)C(=O)N[C@H](C(=O)N[C@H](C(=O)N[C@@H](CCCNC(=N)N)C(N)=O)[C@@H](C)CC)C(C)C)C(C)C [LJK2] (H-VFWRRIRVWVIR-NH2)	–	0.80 ± 0.10	28.4 ± 1.9	43.9 ± 3.7	72.4 ± 8.9	–	–	–	–	Effect on X. fastidiosa growth in the antibiofilm test [1]: affected X. fastidiosa’s growth
CC[C@H](C)[C@H](NC(=O)[C@H](CCCNC(=N)N)NC(=O)[C@@H](NC(=O)[C@H](Cc1c[nH]c2ccccc12)NC(=O)[C@@H](NC(=O)[C@@H](NC(=O)[C@@H](N)CCCNC(=N)N)[C@@H](C)CC)C(C)C)C(C)C)C(=O)N[C@@H](CCCNC(=N)N)C(=O)N[C@@H](CCCNC(=N)N)C(=O)N[C@@H](Cc1c[nH]c2ccccc12)C(=O)N[C@@H](Cc1ccccc1)C(=O)N[C@H](C(N)=O)C(C)C [RJK2] (H-RIVWVRIRRWFV-NH2)	–	–	19.2 ± 3.1	29.6 ± 2.2	50.2 ± 5.4	High (key: High: high antibiofilm activity (ratio of biofilm formation from 0.01 to 0.2); Moderate: moderate activity (ratio from 0.29 to 0.47); Low: low activity (ratio from 0.72 to 0.77))	0.02 ± 0.00	1.54 ± 0.07	0.70 ± 0.08	–
HOC11H22CO-ILPFKFPFFPFRR-NH2 [BP529]	–	–	7.2 ± 0.3	12.5 ± 0.6	39.0 ± 1.1	High (key: High: high antibiofilm activity (ratio of biofilm formation from 0.01 to 0.2); Moderate: moderate activity (ratio from 0.29 to 0.47); Low: low activity (ratio from 0.72 to 0.77))	0.12 ± 0.03	2.29 ± 0.03	0.62 ± 0.09	–
Magainin 2	Xf	–	35.2 ± 1.1	54.5 ± 3.7	71.1 ± 6.0	–	–	–	3.29 ± 0.11	Biofilm formation Level (antibiofilm activity) ([1]; 12.5 μM): Moderate (key: High: high antibiofilm activity (ratio of biofilm formation from 0.01 to 0.2); Moderate: moderate activity (ratio from 0.29 to 0.47); Low: low activity (ratio from 0.72 to 0.77)); Biofilm formation Ratio (treatment/NTC) ([1]; 28°C, 5 days): 0.47 ± 0.02; Planktonic cells Ratio (treatment/NTC) ([1]; 28°C, 5 days): 1.59 ± 0.13; Bactericidal activity: Reduction in viability (Log N0/N) ([3]; 3.1 µM): 0.49 ± 0.10 Log N0/N; log reduction ([3]; 3.1 µM): poorly active; Bactericidal activity: Reduction in viability (Log N0/N) ([3]; 12.5 μM): 2.07 ± 0.12 Log N0/N; log reduction ([3]; 12.5 μM): 2 log
